Laboratory results from ChEMBL document CHEMBL1201862, “PubChem BioAssay data set” (2004).
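Tested at 5 concentrations; 48 h exposure; 96-well plates; endpoints linearly interpolated, else capped at highest concentration. GI50 = concentration required for 50% inhibition of growth.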 Activity calls are given as the source filed them. No stated cut-off is given here; in the data, active = GI50 up to about 1.1 µM and inactive = higher.

Tests used:
Assay in all cases: DTP human tumour cell line panel, 48 h
LOX IMVI = system: LOX IMVI
HCT-15 = system: HCT-15
MDA-N = system: MDA-N
K562 = system: K562
RPMI-8226 = system: RPMI-8226
A498 = system: A498
HOP-62 = system: HOP-62
SNB-75 = system: SNB-75
MOLT-4 = system: MOLT-4
RXF 393 = system: RXF 393
UO-31 = system: UO-31
OVCAR-8 = system: OVCAR-8
CCRF-CEM = system: CCRF-CEM
HOP-92 = system: HOP-92
HCC 2998 = system: HCC 2998
MDA-MB-231 = system: MDA-MB-231
Malme-3M = system: Malme-3M
CAKI-1 = system: CAKI-1
MDA-MB-435 = system: MDA-MB-435
NCI-H460 = system: NCI-H460
SK-MEL-28 = system: SK-MEL-28
ACHN = system: ACHN
UACC-257 = system: UACC-257
SK-MEL-5 = system: SK-MEL-5
SN12C = system: SN12C
SF-539 = system: SF-539
TK-10 = system: TK-10
OVCAR-3 = system: OVCAR-3
DU-145 = system: DU-145
SR = system: SR
PC-3 = system: PC-3
U-251 = system: U-251
HT-29 = system: HT-29
A549 = system: A549
EKVX = system: EKVX
HCT-116 = system: HCT-116
NCI-H226 = system: NCI-H226
COLO 205 = system: COLO 205
KM12 = system: KM12
786-0 = system: 786-0
OVCAR-4 = system: OVCAR-4
SNB-19 = system: SNB-19
OVCAR-5 = system: OVCAR-5
NCI/ADR-RES = system: NCI/ADR-RES
NCI-H23 = system: NCI-H23
MCF7 = system: MCF7
BT-549 = system: BT-549
IGROV-1 = system: IGROV-1
SK-MEL-2 = system: SK-MEL-2
SF-295 = system: SF-295
M14 = system: M14
SF-268 = system: SF-268
HL-60 = system: HL-60
SW-620 = system: SW-620
NCI-H522 = system: NCI-H522
T47D = system: T47D
UACC-62 = system: UACC-62
SK-OV-3 = system: SK-OV-3

C/C(=N\Nc1ccccc1Br)c1cccc(/C(C)=N/Nc2ccccc2Br)n1
GI50 (LOX IMVI): > 100 µM (inactive)
GI50 (HCT-15): > 100 µM
GI50 (MDA-N): 31.7 µM (inactive)
GI50 (K562): 39.7 µM (inactive)
GI50 (RPMI-8226): > 100 µM (inactive)
GI50 (A498): 45.9 µM (inactive)
GI50 (HOP-62): 49.8 µM (inactive)
GI50 (SNB-75): 13 µM (inactive)
GI50 (MOLT-4): > 100 µM (inactive)
GI50 (RXF 393): 19.7 µM (inactive)
GI50 (UO-31): > 100 µM (inactive)
GI50 (OVCAR-8): > 100 µM (inactive)
GI50 (CCRF-CEM): > 100 µM (inactive)
GI50 (HOP-92): 81.5 µM (inactive)
GI50 (HCC 2998): > 100 µM (inactive)
GI50 (MDA-MB-231): 43.4 µM (inactive)
GI50 (Malme-3M): 66.8 µM (inactive)
GI50 (CAKI-1): 49 µM (inactive)
GI50 (MDA-MB-435): 30 µM (inactive)
GI50 (NCI-H460): > 100 µM (inactive)
GI50 (SK-MEL-28): > 100 µM (inactive)
GI50 (ACHN): > 100 µM (inactive)
GI50 (UACC-257): > 100 µM (inactive)
GI50 (SK-MEL-5): > 100 µM (inactive)
GI50 (SN12C): > 100 µM (inactive)
GI50 (SF-539): 88.5 µM (inactive)
GI50 (TK-10): 69.7 µM (inactive)
GI50 (OVCAR-3): 68.1 µM (inactive)
GI50 (DU-145): > 100 µM (inactive)
GI50 (SR): > 100 µM (inactive)
GI50 (PC-3): 42.8 µM (inactive)
GI50 (U-251): > 100 µM (inactive)
GI50 (HT-29): > 100 µM (inactive)
GI50 (A549): > 100 µM (inactive)
GI50 (EKVX): > 100 µM (inactive)
GI50 (HCT-116): > 100 µM (inactive)
GI50 (NCI-H226): > 100 µM (inactive)
GI50 (COLO 205): 68.2 µM (inactive)
GI50 (KM12): 52.6 µM (inactive)
GI50 (786-0): 84.5 µM (inactive)
GI50 (OVCAR-4): > 100 µM (inactive)
GI50 (SNB-19): 63.1 µM (inactive)
GI50 (OVCAR-5): > 100 µM (inactive)
GI50 (NCI/ADR-RES): > 100 µM (inactive)
GI50 (NCI-H23): > 100 µM (inactive)
GI50 (MCF7): 54.1 µM (inactive)
GI50 (BT-549): > 100 µM (inactive)
GI50 (IGROV-1): 80.7 µM (inactive)
GI50 (SK-MEL-2): 39 µM (inactive)
GI50 (SF-295): 34.4 µM (inactive)
GI50 (M14): > 100 µM (inactive)
GI50 (SF-268): 59 µM (inactive)
GI50 (HL-60): > 100 µM (inactive)
GI50 (SW-620): > 100 µM (inactive)

CC1(C)CCC2=C(O1)c1ccccc1C(=O)C2=O [LAPACHONE]
GI50 (NCI-H522): 0.605 µM (active)
GI50 (MDA-N): 0.2 µM (active)
GI50 (K562): 0.245 µM (active)
GI50 (RPMI-8226): 0.284 µM (active)
GI50 (A498): 5.42 µM (inactive)
GI50 (HOP-62): 0.647 µM (active)
GI50 (SNB-75): 0.358 µM (active)
GI50 (MOLT-4): 0.708 µM (active)
GI50 (T47D): 0.411 µM (active)
GI50 (RXF 393): 1.41 µM (inactive)
GI50 (OVCAR-8): 0.398 µM (active)
GI50 (CCRF-CEM): 0.908 µM (active)
GI50 (HOP-92): 3.15 µM (inactive)
GI50 (MDA-MB-231): 0.507 µM (active)
GI50 (Malme-3M): 0.427 µM (active)
GI50 (CAKI-1): 1.03 µM (active)
GI50 (MDA-MB-435): 2.07 µM (inactive)
GI50 (UACC-257): 0.0938 µM (active)
GI50 (SK-MEL-5): 0.272 µM (active)
GI50 (SN12C): 0.51 µM (active)
GI50 (SF-539): 0.463 µM (active)
GI50 (TK-10): 2.24 µM (inactive)
GI50 (OVCAR-3): 0.234 µM (active)
GI50 (DU-145): 0.64 µM (active)
GI50 (SR): 0.215 µM (active)
GI50 (PC-3): 0.847 µM (active)
GI50 (U-251): 0.337 µM (active)
GI50 (HT-29): 2.5 µM (inactive)
GI50 (A549): 0.753 µM (active)
GI50 (UACC-62): 0.475 µM (active)
GI50 (EKVX): 1.72 µM (inactive)
GI50 (HCT-116): 0.277 µM (active)
GI50 (NCI-H226): 1.35 µM (inactive)
GI50 (COLO 205): 1.91 µM (inactive)
GI50 (KM12): 1.36 µM (inactive)
GI50 (SK-OV-3): 1.85 µM (inactive)
GI50 (786-0): 1.2 µM (inactive)
GI50 (OVCAR-4): 0.684 µM (active)
GI50 (OVCAR-5): 0.571 µM (active)
GI50 (NCI-H23): 0.427 µM (active)
GI50 (MCF7): 0.455 µM (active)
GI50 (BT-549): 0.721 µM (active)
GI50 (SK-MEL-2): 1.42 µM (inactive)
GI50 (SF-295): 0.7 µM (active)
GI50 (M14): 0.316 µM (active)
GI50 (SF-268): 0.682 µM (active)
GI50 (SW-620): 0.432 µM (active)
